PubChem BioAssay (NCI)
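Dose response: 5 concentrations. Exposure: 48 h. Format: 96-well plates. Endpoint: linear interpolation; highest concentration if not reached. GI50 = concentration required for 50% inhibition of growth. At the TGI there is no net growth.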

Columns and labels:
Assay in all cases: DTP human tumour cell line panel, 48 h
[1] = system: 786-0 renal
[2] = system: A498 renal
[3] = system: A549 NSCLC
[4] = system: ACHN renal
[5] = system: CAKI-1 renal
[6] = system: CCRF-CEM leukemia
[7] = system: COLO 205 colon
[8] = system: DLD-1 colon
[9] = system: DMS 273 small cell lung
[10] = system: DU-145 prostate
[11] = system: EKVX NSCLC
[12] = system: HCC-2998 colon
[13] = system: HCT-116 colon
[14] = system: HCT-15 colon
[15] = system: HL-60(TB) leukemia
[16] = system: HOP-18 NSCLC
[17] = system: HOP-62 NSCLC
[18] = system: HOP-92 NSCLC
[19] = system: HT29 colon
[20] = system: IGROV1 ovarian
[21] = system: K-562 leukemia
[22] = system: KM12 colon
[23] = system: KM20L2 colon
[24] = system: LOX IMVI melanoma
[25] = system: LXFL 529 NSCLC
[26] = system: M14 melanoma
[27] = system: M19-MEL melanoma
[28] = system: MALME-3M melanoma
[29] = system: MOLT-4 leukemia
[30] = system: NCI-H226 lung
[31] = system: NCI-H23 lung
[32] = system: NCI-H460 lung
[33] = system: NCI-H522 lung
[34] = system: OVCAR-3 ovarian
[35] = system: OVCAR-4 ovarian
[36] = system: OVCAR-5 ovarian
[37] = system: OVCAR-8 ovarian
[38] = system: RPMI-8226 leukemia
[39] = system: RXF 393 renal
[40] = system: SF-268 CNS
[41] = system: SF-295 CNS
[42] = system: SF-539 CNS
[43] = system: SK-MEL-2 melanoma
[44] = system: SK-MEL-28 melanoma
[45] = system: SK-MEL-5 melanoma
[46] = system: SK-OV-3 ovarian
[47] = system: SN12C renal
[48] = system: SNB-19 CNS
[49] = system: SNB-75 CNS
[50] = system: SNB-78 CNS
[51] = system: SR leukemia
[52] = system: SW-620 colon
[53] = system: TK-10 renal
[54] = system: U251 CNS
[55] = system: UACC-257 melanoma
[56] = system: UACC-62 melanoma
[57] = system: UO-31 renal
[58] = system: XF 498 CNS
[59] = system: DMS 114 small cell lung

## CC(=O)N/C=C/c1cc(O)ccc1O
[1]
  TGI: 48.1 µM
[2]
  TGI: 98.1 µM
[3]
  TGI: > 76.4 µM
[4]
  TGI: 37.4 µM
[5]
  TGI: 41.7 µM
[6]
  TGI: 75.3 µM
[7]
  TGI: 45.8 µM
[8]
  TGI: 48.2 µM
[9]
  TGI: > 100 µM
[10]
  TGI: > 100 µM
[11]
  TGI: > 73.6 µM
[12]
  TGI: > 76.2 µM
[13]
  TGI: 47.4 µM
[14]
  TGI: > 72.9 µM
[15]
  TGI: 54 µM
[16]
  TGI: 35.2 µM
[17]
  TGI: > 55.2 µM
[18]
  TGI: 36.8 µM
[19]
  TGI: 48.6 µM
[20]
  TGI: > 68.1 µM
[21]
  TGI: > 91.7 µM
[22]
  TGI: > 100 µM
[23]
  TGI: > 67.7 µM
[24]
  TGI: 45.6 µM
[25]
  TGI: 29 µM
[26]
  TGI: 48.2 µM
[27]
  TGI: 46.7 µM
[28]
  TGI: > 60.6 µM
[29]
  TGI: 37.1 µM
[30]
  TGI: > 77.4 µM
[31]
  TGI: 56.1 µM
[32]
  TGI: > 74.6 µM
[33]
  TGI: 7.19 µM
[34]
  TGI: 29.8 µM
[35]
  TGI: 47.9 µM
[36]
  TGI: 38.1 µM
[37]
  TGI: > 85.9 µM
[38]
  TGI: > 89.9 µM
[39]
  TGI: 49.3 µM
[40]
  TGI: 49.8 µM
[41]
  TGI: 48.1 µM
[42]
  TGI: > 66.5 µM
[43]
  TGI: 55.1 µM
[44]
  TGI: 48.6 µM
[45]
  TGI: > 67.5 µM
[46]
  TGI: > 70.6 µM
[47]
  TGI: 46.9 µM
[48]
  TGI: > 72.4 µM
[49]
  TGI: > 81.9 µM
[50]
  TGI: > 71.8 µM
[51]
  TGI: 70.5 µM
[52]
  TGI: 35.4 µM
[53]
  TGI: 54.5 µM
[54]
  TGI: > 68.6 µM
[55]
  TGI: 47.9 µM
[56]
  TGI: 47.1 µM
[57]
  TGI: 46.2 µM
[58]
  TGI: 32.3 µM

## COC(=O)C(=O)C(C(=O)C(=O)Nc1ccc(OC)cc1[N+](=O)[O-])c1nc2ccc([N+](=O)[O-])cc2[nH]c1=O (stereo not given)
[1]
  TGI: > 100 µM
[2]
  TGI: > 100 µM
[3]
  TGI: > 100 µM
[4]
  TGI: > 100 µM
[5]
  TGI: > 100 µM
[6]
  TGI: > 100 µM
[7]
  TGI: > 100 µM
[8]
  TGI: > 100 µM
[59]
  TGI: > 100 µM
[11]
  TGI: > 100 µM
[12]
  TGI: > 100 µM
[13]
  TGI: > 100 µM
[14]
  TGI: > 100 µM
[15]
  TGI: > 100 µM
[16]
  TGI: > 100 µM
[17]
  TGI: > 100 µM
[18]
  TGI: > 100 µM
[19]
  TGI: > 100 µM
[20]
  TGI: > 100 µM
[21]
  TGI: > 100 µM
[22]
  TGI: > 100 µM
[23]
  TGI: > 100 µM
[24]
  TGI: > 100 µM
[25]
  TGI: > 100 µM
[26]
  TGI: > 100 µM
[27]
  TGI: > 100 µM
[28]
  TGI: > 100 µM
[29]
  TGI: > 100 µM
[30]
  TGI: > 100 µM
[31]
  TGI: > 100 µM
[32]
  TGI: > 100 µM
[33]
  TGI: > 100 µM
[34]
  TGI: > 100 µM
[35]
  TGI: > 100 µM
[36]
  TGI: > 100 µM
[37]
  TGI: > 100 µM
[38]
  TGI: > 100 µM
[39]
  TGI: > 100 µM
[40]
  TGI: > 100 µM
[41]
  TGI: > 100 µM
[46]
  TGI: > 100 µM
[47]
  TGI: > 100 µM
[48]
  TGI: > 100 µM
[49]
  TGI: > 100 µM
[50]
  TGI: > 100 µM
[51]
  TGI: > 100 µM
[52]
  TGI: > 100 µM
[53]
  TGI: > 100 µM
[54]
  TGI: > 100 µM
[55]
  TGI: > 100 µM
[56]
  TGI: > 100 µM
[57]
  TGI: > 100 µM
[58]
  TGI: > 100 µM

## C=[CH][Sn]([CH]=C)([S]c1cccc2cccnc12)[S]c1cccc2cccnc12
[1]
  GI50: 0.216 µM
  TGI: 0.452 µM
[3]
  GI50: 0.343 µM
  TGI: 1.12 µM
[4]
  GI50: 0.206 µM
  TGI: 0.507 µM
[5]
  GI50: 0.366 µM
  TGI: 1.58 µM
[6]
  GI50: 0.0767 µM
  TGI: 0.641 µM
[7]
  GI50: 0.0702 µM
  TGI: 0.254 µM
[8]
  GI50: 0.244 µM
  TGI: 0.722 µM
[9]
  GI50: 0.216 µM
  TGI: 0.486 µM
[11]
  GI50: 0.678 µM
  TGI: 1.97 µM
[12]
  GI50: 0.212 µM
  TGI: 0.437 µM
[13]
  GI50: 0.165 µM
  TGI: 0.318 µM
[14]
  GI50: 0.237 µM
  TGI: 0.648 µM
[15]
  GI50: 0.268 µM
  TGI: 0.611 µM
[16]
  GI50: 1.66 µM
  TGI: 3.02 µM
[17]
  GI50: 1.45 µM
  TGI: 3.49 µM
[18]
  GI50: 1.59 µM
  TGI: 3.07 µM
[19]
  GI50: 0.226 µM
  TGI: 0.476 µM
[20]
  GI50: 0.273 µM
  TGI: 0.726 µM
[21]
  GI50: 0.234 µM
  TGI: 0.621 µM
[22]
  GI50: 0.176 µM
  TGI: 0.322 µM
[23]
  GI50: 0.211 µM
  TGI: 0.449 µM
[24]
  GI50: 0.172 µM
  TGI: 0.31 µM
[25]
  GI50: 0.236 µM
  TGI: 0.649 µM
[26]
  GI50: 0.21 µM
  TGI: 0.404 µM
[27]
  GI50: 0.194 µM
  TGI: 0.372 µM
[29]
  GI50: 0.287 µM
  TGI: 0.967 µM
[30]
  GI50: 0.28 µM
  TGI: 1.15 µM
[31]
  GI50: 0.169 µM
  TGI: 0.388 µM
[32]
  GI50: 0.201 µM
  TGI: 0.417 µM
[34]
  GI50: 0.268 µM
  TGI: 0.81 µM
[35]
  GI50: 0.204 µM
  TGI: 0.553 µM
[36]
  GI50: 0.237 µM
  TGI: 0.745 µM
[37]
  GI50: 0.313 µM
  TGI: 1 µM
[38]
  GI50: 0.248 µM
  TGI: 0.692 µM
[39]
  GI50: 0.255 µM
  TGI: 0.678 µM
[41]
  GI50: 0.438 µM
  TGI: 1.83 µM
[42]
  GI50: 0.321 µM
  TGI: 1.01 µM
[43]
  GI50: 0.222 µM
  TGI: 0.49 µM
[44]
  GI50: 0.138 µM
  TGI: 0.321 µM
[45]
  GI50: 0.203 µM
  TGI: 0.389 µM
[46]
  GI50: 0.436 µM
  TGI: 1.55 µM
[47]
  GI50: 0.442 µM
  TGI: 1.6 µM
[48]
  GI50: 0.794 µM
  TGI: 2.04 µM
[49]
  GI50: 0.562 µM
  TGI: 2.37 µM
[50]
  GI50: 0.145 µM
  TGI: 0.396 µM
[51]
  GI50: 0.216 µM
  TGI: 0.687 µM
[52]
  GI50: 0.156 µM
  TGI: 0.299 µM
[53]
  GI50: 0.458 µM
  TGI: 1.46 µM
[54]
  GI50: 0.191 µM
  TGI: 0.38 µM
[55]
  GI50: 0.212 µM
  TGI: 0.494 µM
[56]
  GI50: 0.147 µM
  TGI: 0.287 µM
[57]
  GI50: 0.181 µM
  TGI: 0.358 µM
[58]
  GI50: 0.283 µM
  TGI: 0.679 µM

## CCC12C=CCN3CCC4(c5cc(C6(C(=O)OC)CCCCCc7c6[nH]c6ccccc76)c(OC)cc5N(C)C4C(O)(C(=O)OC)C1OC(C)=O)C32 (stereo not given)
[1]
  TGI: 4.89 µM
[2]
  TGI: 7.39 µM
[3]
  TGI: 11.7 µM
[4]
  TGI: 3.3 µM
[5]
  TGI: 7.46 µM
[6]
  TGI: 5.49 µM
[7]
  TGI: 8.85 µM
[59]
  TGI: 7.09 µM
[11]
  TGI: 14 µM
[12]
  TGI: 3.97 µM
[13]
  TGI: 13 µM
[14]
  TGI: 5.29 µM
[15]
  TGI: 5.81 µM
[16]
  TGI: 4.86 µM
[17]
  TGI: 13.2 µM
[18]
  TGI: 4.76 µM
[19]
  TGI: 2.06 µM
[20]
  TGI: 5.23 µM
[21]
  TGI: > 100 µM
[22]
  TGI: 5.93 µM
[23]
  TGI: 4.76 µM
[25]
  TGI: 5.54 µM
[26]
  TGI: 6.75 µM
[27]
  TGI: 6.93 µM
[28]
  TGI: 3.84 µM
[29]
  TGI: 9.19 µM
[30]
  TGI: 6.65 µM
[32]
  TGI: 9.92 µM
[34]
  TGI: 15.5 µM
[35]
  TGI: 12.3 µM
[37]
  TGI: 17.2 µM
[38]
  TGI: 6.97 µM
[39]
  TGI: 3.52 µM
[41]
  TGI: 5.3 µM
[42]
  TGI: 4.63 µM
[43]
  TGI: 3.17 µM
[44]
  TGI: 4.35 µM
[47]
  TGI: 12.8 µM
[48]
  TGI: 12.1 µM
[49]
  TGI: 7.8 µM
[50]
  TGI: 9.48 µM
[51]
  TGI: 7.65 µM
[52]
  TGI: 17.5 µM
[53]
  TGI: 5.5 µM
[54]
  TGI: 5.68 µM
[56]
  TGI: 3.43 µM
[57]
  TGI: 7.25 µM
[58]
  TGI: 6.44 µM
